Test results as given in ChEMBL document CHEMBL6109145, “Indolizine Derivatives Inhibit TRPM2 and Protect against Ischemic Brain Injury with an Extended Treatment Window” (J Med Chem, 2025).

What was measured:
[1] = target: Transient receptor potential cation channel subfamily M member 2 (Homo sapiens, UniProt O94759); assay: Inhibition of TRPM2 channel (unknown origin) in doxycycline-inducible human HEK-293T cells assessed as inhibition of ADPR activated current by measuring inhibition rate at +80 mV to -80 mV at 1 uM by whole-cell patch clamp electrophysiology relative to control; type: cell-based
Transient receptor potential cation channel subfamily M member 2, sequence (O94759 whole entry): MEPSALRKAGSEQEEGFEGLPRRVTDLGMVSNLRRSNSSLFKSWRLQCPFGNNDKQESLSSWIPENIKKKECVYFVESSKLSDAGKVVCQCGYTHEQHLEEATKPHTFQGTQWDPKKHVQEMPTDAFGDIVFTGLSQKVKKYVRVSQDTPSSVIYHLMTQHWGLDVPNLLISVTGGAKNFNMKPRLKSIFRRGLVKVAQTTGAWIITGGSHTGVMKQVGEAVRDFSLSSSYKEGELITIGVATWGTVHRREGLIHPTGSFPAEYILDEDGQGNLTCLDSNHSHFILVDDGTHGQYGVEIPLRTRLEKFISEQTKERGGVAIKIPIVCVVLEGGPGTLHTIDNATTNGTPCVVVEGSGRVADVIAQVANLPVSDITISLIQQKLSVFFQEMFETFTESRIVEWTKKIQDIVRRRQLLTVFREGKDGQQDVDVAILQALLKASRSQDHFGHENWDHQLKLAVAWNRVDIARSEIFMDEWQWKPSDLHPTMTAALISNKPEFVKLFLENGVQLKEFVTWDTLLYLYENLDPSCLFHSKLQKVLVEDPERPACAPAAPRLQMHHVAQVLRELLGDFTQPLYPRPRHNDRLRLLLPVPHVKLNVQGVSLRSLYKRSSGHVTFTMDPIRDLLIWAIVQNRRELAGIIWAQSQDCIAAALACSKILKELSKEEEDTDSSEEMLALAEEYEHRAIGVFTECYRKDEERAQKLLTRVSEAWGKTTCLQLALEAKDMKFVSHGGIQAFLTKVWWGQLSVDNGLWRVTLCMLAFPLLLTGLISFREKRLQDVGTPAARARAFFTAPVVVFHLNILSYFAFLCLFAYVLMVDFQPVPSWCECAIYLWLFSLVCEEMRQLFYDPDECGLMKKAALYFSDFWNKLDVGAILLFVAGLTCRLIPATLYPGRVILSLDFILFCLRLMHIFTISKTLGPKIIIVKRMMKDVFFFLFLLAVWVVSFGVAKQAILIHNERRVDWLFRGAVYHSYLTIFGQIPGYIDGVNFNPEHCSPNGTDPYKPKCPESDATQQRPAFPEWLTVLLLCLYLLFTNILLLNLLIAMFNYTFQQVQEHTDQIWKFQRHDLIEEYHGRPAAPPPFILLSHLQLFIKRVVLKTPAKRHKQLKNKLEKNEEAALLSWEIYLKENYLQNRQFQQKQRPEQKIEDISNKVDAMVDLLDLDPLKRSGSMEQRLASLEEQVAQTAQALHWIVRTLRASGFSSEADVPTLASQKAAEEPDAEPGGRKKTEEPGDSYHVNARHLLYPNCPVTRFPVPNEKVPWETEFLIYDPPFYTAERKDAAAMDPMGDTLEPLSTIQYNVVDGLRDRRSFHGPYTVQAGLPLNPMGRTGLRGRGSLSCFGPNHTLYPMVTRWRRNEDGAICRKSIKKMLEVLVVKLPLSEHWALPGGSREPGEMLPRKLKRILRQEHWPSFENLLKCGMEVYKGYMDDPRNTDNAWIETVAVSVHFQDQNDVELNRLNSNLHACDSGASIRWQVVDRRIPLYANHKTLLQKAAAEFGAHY

[2] = AUC (0 to t) in mouse at 1 mg/kg, iv administered single dose; type: ADME, organism-based; conditions: in vivo
[3] = AUC (0 to infinitive) in mouse at 20 mg/kg, IG administered single dose; type: ADME, organism-based; conditions: in vivo, po
[4] = Clearance in mouse at 1 mg/kg, iv administered single dose; type: ADME, organism-based; conditions: in vivo
[5] = Cmax in mouse at 1 mg/kg, iv administered single dose; type: ADME, organism-based; conditions: in vivo
[6] = Tmax in mouse at 20 mg/kg, IG administered single dose; type: ADME, organism-based; conditions: in vivo, po
[7] = Cmax in mouse at 20 mg/kg, IG administered single dose; type: ADME, organism-based; conditions: in vivo, po
Mus musculus [8] = assay: Neuroprotective effect against transient middle cerebral artery occlusion (tMCAO) mouse model assessed as infarct volume in TTC-stained brain slices at 0.3 mg/kg, iv administered 3 hrs after reperfusion (reference value: 59 +/- 2.4%); type: functional
[9] = AUC (0 to t) in mouse at 100 mg/kg, IG administered single dose; type: ADME, organism-based; conditions: in vivo, po
[10] = AUC (0 to infinitive) in mouse at 1 mg/kg, iv administered single dose; type: ADME, organism-based; conditions: in vivo
Mus musculus [11] = assay: Neuroprotective effect against transient middle cerebral artery occlusion (tMCAO) mouse model assessed as infarct volume in TTC-stained brain slices at 1 mg/kg, iv administered 3 hrs after reperfusion (reference value: 59 +/- 2.4%); type: functional
[12] = AUC (0 to t) in mouse at 20 mg/kg, IG administered single dose; type: ADME, organism-based; conditions: in vivo, po
[13] = MRT in mouse at 1 mg/kg, iv administered single dose; type: ADME, organism-based; conditions: in vivo
[14] = Tmax in mouse at 1 mg/kg, iv administered single dose; type: ADME, organism-based; conditions: in vivo
[15] = Half life in mouse at 100 mg/kg, IG administered single dose; type: ADME, organism-based; conditions: in vivo, po
[16] = Half life in mouse at 1 mg/kg, iv administered single dose; type: ADME, organism-based; conditions: in vivo
[17] = Tmax in mouse at 100 mg/kg, IG administered single dose; type: ADME, organism-based; conditions: in vivo, po
[18] = Oral bioavailability in mouse at 100 mg/kg, IG administered single dose; type: ADME, organism-based; conditions: in vivo
[19] = MRT in mouse at 100 mg/kg, IG administered single dose; type: ADME, organism-based; conditions: in vivo, po
[20] = AUC (0 to infinity) in mouse at 100 mg/kg, IG administered single dose; type: ADME, organism-based; conditions: in vivo, po
[21] = Oral bioavailability in mouse at 20 mg/kg, IG administered single dose; type: ADME, organism-based; conditions: in vivo
[22] = MRT in mouse at 20 mg/kg, IG administered single dose; type: ADME, organism-based; conditions: in vivo, po
Mus musculus [23] = assay: Neuroprotective effect against transient middle cerebral artery occlusion (tMCAO) mouse model assessed as infarct volume in TTC-stained brain slices at 3 mg/kg, iv administered 3 hrs after reperfusion (reference value: 59 +/- 2.4%); type: functional
Mus musculus [24] = assay: Neuroprotective effect against transient middle cerebral artery occlusion (tMCAO) (60 mins ischemia/24 hrs reperfusion) mouse model assessed as infarct volume in TTC-stained brain slices at 3 mg/kg, iv once daily for 7 days (reference value: 39.6 +/- 1.3%); type: functional; conditions: 1 h
Mus musculus [25] = assay: Neuroprotective effect against transient middle cerebral artery occlusion (tMCAO) mouse model assessed as infarct volume in TTC-stained brain slices at 3 mg/kg, iv administered 24 hrs after reperfusion (reference value: 4.3 +/- 0.3%); type: functional
[26] = Half life in mouse at 20 mg/kg, IG administered single dose; type: ADME, organism-based; conditions: in vivo, po
[27] = Cmax in mouse at 100 mg/kg, IG administered single dose; type: ADME, organism-based; conditions: in vivo, po
Mus musculus [28] = assay: Neuroprotective effect against transient middle cerebral artery occlusion (tMCAO) mouse model assessed as infarct volume in TTC-stained brain slices at 1 mg/kg, iv administered 24 hrs after reperfusion (reference value: 4.3 +/- 0.3%); type: functional

## O=C(c1ccccc1)c1cc(C(=O)N2CCOCC2)cc2cccn12
[1]
  IC50: 2890 nM

## CCN(CC)C(=O)c1cc(C(=O)c2ccccc2)n2cccc2c1
[2]
  AUC(0-t): 220 ng·h/mL
[3]
  AUC: 2410 ng·h/mL
[4]
  clearance: 75.8 mL/min/kg
[5]
  Cmax: 260 ng/mL
[6]
  Tmax: 0.83 h
[7]
  Cmax: 330 ng/mL
Mus musculus [8]
  Activity: 51.5%
[9]
  AUC(0-t): 10600 ng·h/mL
[10]
  AUC(0-inf): 220 ng·h/mL
Mus musculus [11]
  Activity: 39.4%
[12]
  AUC(0-t): 2200 ng·h/mL
[13]
  MRT: 1.24 h
[14]
  Tmax: 5.4 min
[15]
  half-life: 2.83 h
[16]
  half-life: 0.86 h
[17]
  Tmax: 1.1 h
[18]
  bioavailability: 48.2%
[19]
  MRT: 3.16 h
[20]
  AUC: 11740 ng·h/mL
[1]
  IC50: 2290 nM
[21]
  bioavailability: 50%
[22]
  MRT: 2.65 h
Mus musculus [23]
  Activity: 30.7%
Mus musculus [24]
  Activity: 23.4%
Mus musculus [25]
  Activity: 2.3%
[26]
  half-life: 2.62 h
[27]
  Cmax: 1520 ng/mL

## O=C(c1ccccc1)c1cc(C(=O)N2CCCC2)cc2cccn12
[1]
  IC50: 3080 nM

## O=C(c1ccccc1)c1cc(C(=O)N2CCCCC2)cc2cccn12
[1]
  IC50: 2800 nM

## CC1=NN(c2ccccc2)C(=O)C1 [EDARAVONE]
Mus musculus [28]
  Activity: 2.8%
Mus musculus [23]
  Activity: 40.6%
Mus musculus [24]
  Activity: 38.9%
Mus musculus [25]
  Activity: 3%
